# According to patent US20090186874A1, “Carboxamide derivative and use thereof” (priority 2004, published 2009):
# Where a name gives a salt, the structure may show the parent alone.
# Target: T1, substance P receptor (Homo sapiens, UniProt P25103)
# T1 construct: The receptor was prepared from human lymphoblast cells (IM-9); endogenous in cells; host or cells: IM-9 human lymphoblast cells (membrane preparation)
# Assay: Radioligand receptor binding inhibitory activity (125I-BHSP binding to receptor from IM-9 cells)
# Settings: receptor from human lymphoblast cells (IM-9); radioligand 125I-BHSP; 25° C., 30 minutes
# Method: Radioligand receptor binding inhibitory activity (Binding inhibitory activity using receptor from human lymphoblast cells (IM-9))
# The residue was washed twice with 30 mL of the above-mentioned buffer, which was then preserved frozen (−80° C.) as a specimen of the receptor.
# The specimen was suspended in a reaction buffer (50 mM Tri-HCl buffer (pH 7.4), 0.02% bovine serum albumin, 1 mM phenylmethylsulfonyl fluoride, 2 μg/mL chymostatin, 40 μg/mL bacitracin and 3 mM manganese chloride) to have protein in the concentration of 0.5 mg/mL of protein and 100 μl portion of the suspension was used in the reaction. […] The amount of nonspecific binding was determined by adding substance P at a final concentration of 2×10^−6 M.
# After the reaction, using a cell harvester (290 PHD, Cambridge Technology, Inc, U.S.A.), filtration was carried out through a glass filter (GF/B, Whatman, U.S.A.), which was immersed in 0.1% polyethyleneimine for 24 hours and dried. After washing three times with 250 μL of 50 mM Tris-HCl buffer (pH 7.4) containing 0.02% bovine serum albumin, the radioactivity remaining on the filter was determined with a gamma counter.
# T1 sequence (P25103 whole entry): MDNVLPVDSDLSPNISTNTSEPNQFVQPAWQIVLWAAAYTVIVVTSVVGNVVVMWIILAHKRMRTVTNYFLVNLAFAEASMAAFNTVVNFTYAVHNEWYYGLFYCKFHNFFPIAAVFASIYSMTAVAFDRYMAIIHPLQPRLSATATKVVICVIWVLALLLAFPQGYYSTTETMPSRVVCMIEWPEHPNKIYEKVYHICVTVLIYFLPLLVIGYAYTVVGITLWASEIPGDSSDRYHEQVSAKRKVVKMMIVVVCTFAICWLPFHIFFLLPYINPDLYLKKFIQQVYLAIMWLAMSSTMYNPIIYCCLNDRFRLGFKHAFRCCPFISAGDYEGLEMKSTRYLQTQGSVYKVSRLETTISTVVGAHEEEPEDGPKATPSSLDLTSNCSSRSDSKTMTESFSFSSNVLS
row,Structure (SMILES),IC50
1,"Cc1cc(F)ccc1[C@@H]1CNCC[C@H]1C(=O)N(C)Cc1cc(C(F)(F)F)cc(C(F)(F)F)c1 (relative stereo) [Example 12, (3R*,4R*)-N-[3,5-bis(trifluoromethyl)benzyl]-3-(4-fluoro-2-methylphenyl)-N-methylpiperidine-4-carboxamide hydrochloride]",0.051 nM
2,"CC(=O)N1CCC(C(=O)N2CC[C@H](C(=O)N(C)Cc3cc(C(F)(F)F)cc(C(F)(F)F)c3)[C@H](c3ccccc3)C2)CC1 (relative stereo) [Example 30, (3R*,4S*)-1-[(1-acetylpiperidin-4-yl)carbonyl]-N-[3,5-bis(trifluoromethyl)benzyl]-N-methyl-3-phenylpiperidine-4-carboxamide]",0.049 nM
3,"CC(=O)N1CCC(C(=O)N2CC[C@@H](C(=O)N(C)Cc3cc(C(F)(F)F)cc(C(F)(F)F)c3)[C@H](c3ccccc3)C2)CC1 (relative stereo) [Example 35, (3R*,4R*)-1-[(1-acetylpiperidin-4-yl)carbonyl]-N-[3,5-bis(trifluoromethyl)benzyl]-N-methyl-3-phenylpiperidine-4-carboxamide]",0.098 nM
4,"COCC(=O)N1CC[C@@H](C(=O)N(C)Cc2cc(C(F)(F)F)cc(C(F)(F)F)c2)[C@H](c2ccc(F)cc2C)C1 (relative stereo) [Example 40, (3R*,4R*)-N-[3,5-bis(trifluoromethyl)benzyl]-3-(4-fluoro-2-methylphenyl)-1-(methoxyacetyl)-N-methylpiperidine-4-carboxamide]",0.058 nM
5,"CCN(CC)CCC(=O)N1CC[C@@H](C(=O)N(C)Cc2cc(C(F)(F)F)cc(C(F)(F)F)c2)[C@H](c2ccc(F)cc2C)C1 (relative stereo) [Example 41, (3R*,4R*)-N-[3,5-bis(trifluoromethyl)benzyl]-1-(N,N-diethyl-β-alanyl)-3-(4-fluoro-2-methylphenyl)-N-methylpiperidine-4-carboxamide Hydrochloride]",0.025 nM
6,"Cc1cc(F)ccc1[C@@H]1CN(C(=O)Cn2cnnn2)CC[C@H]1C(=O)N(C)Cc1cc(C(F)(F)F)cc(C(F)(F)F)c1 (relative stereo) [Example 42, (3R*,4R*)-N-[3,5-bis(trifluoromethyl)benzyl]-3-(4-fluoro-2-methylphenyl)-N-methyl-1-(1H-tetrazol-1-ylacetyl)piperidine-4-carboxamide]",0.022 nM
7,"Cc1cc(F)ccc1[C@@H]1CN(C(=O)CC2NC(=O)NC2=O)CC[C@H]1C(=O)N(C)Cc1cc(C(F)(F)F)cc(C(F)(F)F)c1 (relative stereo) [Example 43, (3R*,4R*)-N-[3,5-bis(trifluoromethyl)benzyl]-1-[(2,5-dioxoimidazolidin-4-yl)acetyl]-3-(4-fluoro-2-methylphenyl)-N-methylpiperidine-4-carboxamide]",0.064 nM
8,"CC(=O)N1CCC(C(=O)N2CC[C@H](C(=O)N(C)Cc3cc(C(F)(F)F)cc(C(F)(F)F)c3)[C@H](c3ccc(F)cc3)C2)CC1 (relative stereo) [Example 44, (3R*,4S*)-1-[(1-acetylpiperidin-4-yl)carbonyl]-N-[3,5-bis(trifluoromethyl)benzyl]-3-(4-fluorophenyl)-N-methylpiperidine-4-carboxamide]",0.019 nM
9,"CC(=O)N1CCC(C(=O)N2CC[C@@H](C(=O)N(C)Cc3cc(C(F)(F)F)cc(C(F)(F)F)c3)[C@H](c3ccc(F)cc3)C2)CC1 (relative stereo) [Example 45, (3R*,4R*)-1-[(1-acetylpiperidin-4-yl)carbonyl]-N-[3,5-bis(trifluoromethyl)benzyl]-3-(4-fluorophenyl)-N-methylpiperidine-4-carboxamide]",0.052 nM
10,"CC(=O)N1CCC(C(=O)N2CC[C@@H](C(=O)N(C)Cc3cc(C(F)(F)F)cc(C(F)(F)F)c3)[C@H](c3ccc(F)cc3C)C2)CC1 (relative stereo) [Example 46, (3R*,4R*)-1-[(1-acetylpiperidin-4-yl)carbonyl]-N-[3,5-bis(trifluoromethyl)benzyl]-3-(4-fluoro-2-methylphenyl)-N-methylpiperidine-4-carboxamide]",0.047 nM
11,"Cc1cc(F)ccc1[C@@H]1CN(Cc2n[nH]c(=O)[nH]2)CC[C@H]1C(=O)N(C)Cc1cc(C(F)(F)F)cc(C(F)(F)F)c1 (relative stereo) [Example 54, (3R*,4R*)-N-[3,5-bis(trifluoromethyl)benzyl]-3-(4-fluoro-2-methylphenyl)-N-methyl-1-[(5-oxo-4,5-dihydro-1H-1,2,4-triazol-3-yl)methyl]piperidine-4-carboxamide]",0.036 nM
12,"Cc1cc(F)ccc1[C@@H]1CN(C(=O)C(N)=O)CC[C@H]1C(=O)N(C)Cc1cc(C(F)(F)F)cc(C(F)(F)F)c1 (relative stereo) [Example 73, (3R*,4R*)-1-[amino(oxo)acetyl]-N-[3,5-bis(trifluoromethyl)benzyl]-3-(4-fluoro-2-methylphenyl)-N-methylpiperidine-4-carboxamide]",0.052 nM
13,"Cc1cc(F)ccc1[C@@H]1CN(C(N)=O)CC[C@H]1C(=O)N(C)Cc1cc(C(F)(F)F)cc(C(F)(F)F)c1 (relative stereo) [Example 75, (3R*,4R*)-N^4-[3,5-bis(trifluoromethyl)benzyl]-3-(4-fluoro-2-methylphenyl)-N^4-methylpiperidine-1,4-dicarboxamide]",0.035 nM
14,"CC(=O)NCC(=O)N1CC[C@@H](C(=O)N(C)Cc2cc(C(F)(F)F)cc(C(F)(F)F)c2)[C@H](c2ccc(F)cc2C)C1 (relative stereo) [Example 77, (3R*,4R*)-1-(N-acetylglycyl)-N-[3,5-bis(trifluoromethyl)benzyl]-3-(4-fluoro-2-methylphenyl)-N-methylpiperidine-4-carboxamide]",0.043 nM
